Measured values taken from the NIST ThermoML archive (doi:10.1016/j.jct.2010.04.019).

Experiment: molar heat capacity at constant pressure; xn = mol fraction of the nth substance listed
Details: 101 kPa, Liquid, Vacuum adiabatic calorimetry

CC#N [acetonitrile] + O
molar heat capacity at constant pressure [J/K/mol]
Details	283.15 K	298.15 K	313.15 K	328.15 K
x1 = 0.0112	76.78	76.64	76.74	76.89
x1 = 0.0194	77.58	77.54	77.7	77.9
x1 = 0.0286	78.38	78.45	78.67	78.89
x1 = 0.0383	79.1	79.27	79.51	79.77
x1 = 0.0497	79.91	80.02	80.18	80.51
x1 = 0.0611	80.52	80.57	80.8	81
x1 = 0.0702	80.89	80.95	81.21	81.46
x1 = 0.0804	81.26	81.33	81.57	81.9
x1 = 0.091	81.66	81.73	81.99	82.33
x1 = 0.1007	81.99	82.06	82.36	82.7
x1 = 0.2124	85.36	85.66	86.24	86.82
x1 = 0.3063	87.72	88.31	89.08	89.92
x1 = 0.3987	89.89	90.7	91.59	92.56
x1 = 0.4856	91.57	92.38	93.42	94.38
x1 = 0.6011	93.03	93.96	94.89	95.86
x1 = 0.7107	93.7	94.44	95.33	96.16
x1 = 0.8024	93.56	94.16	94.79	95.62
x1 = 0.9005	92.77	93.28	93.87	94.55
x1 = 0.9091	92.66	93.17	93.75	94.42
x1 = 0.9203	92.52	93.01	93.59	94.24
x1 = 0.9316	–	92.85	93.41	94.06
x1 = 0.9402	92.25	92.73	93.29	93.94
x1 = 0.9496	92.11	92.59	93.14	93.77
x1 = 0.9604	91.94	92.4	92.95	93.58
x1 = 0.9711	91.77	92.22	92.76	93.38
x1 = 0.9803	91.61	92.06	92.59	93.21
x1 = 0.991	91.42	91.87	92.39	93
x1 = 1	91.25	91.69	92.21	92.82

O [water] + CC#N
x2 = 0
Details	molar heat capacity at constant pressure [J/K/mol]
283.15 K	75.52
298.15 K	75.29
313.15 K	75.27
328.15 K	75.34
